Reference: the supplement of paper PMC11208160

Assay: recombinant barcode read abundance after kanamycin selection (control-corrected) (log10(CPM+1)); higher = more efficient recombination; sequences stand for … in AGTGCAGAGAAAATCGGCCAGTTTTCTCTGCCTGCAGTCCGCATGCCGT…AGATTTATGCAGCGGACTGCCTTTCTCCCAAAGTGATAAACCGGACAGTATCATGGACCGGTTTTCCCGGTAATCCGTATTTGCAAGGTTGGTTTCACT; site = the 11-nt target
Method in brief: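 Pooled E. coli screen pairing targets with IS621 bridge RNA target-binding loops. Each oligo (promoter, target, barcode, J23119-driven first 104 bridge RNA bases) was Gibson-cloned into a vector with the remaining 73 bp and T7-inducible recombinase, then co-electroporated with a donor plasmid. Two replicates each were plated on chloramphenicol/ampicillin LB agar (control) or chloramphenicol/ampicillin/kanamycin with 0.1 mM IPTG. Recombination efficiency is recombinant-junction barcode counts as CPM, averaged, control-corrected, reported as log10(CPM+1).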
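Also: IS621 recombinase and bridge RNA in Escherichia coli cells.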

With “GCTCTCCCTTGGGTTCTAACCTGTTGCCT (site GCACTCCCTAG)” the “recombinant barcode read abundance (log10)” value was 0.0891.
For “GCTCTCCCTTGGGTTCTAACCTGTTGCCT (site GCCCTCCCTAG)”, the “recombinant barcode read abundance (log10)” value was 0.388.
With “GCTCTCCCTTGGGTTCTAACCTGTTGCCT (site GCGCTCCCTAG)” the “recombinant barcode read abundance (log10)” value was 0.253.
For “GCTCTCCCTTGGGTTCTAACCTGTTGCCT (site GCTCTCCCTAG)”, the “recombinant barcode read abundance (log10)” value was 0.305.
With “GCTGGACCTTGGGTTCTAACCTGTTGCCT (site ACTGGACCTAA)” the “recombinant barcode read abundance (log10)” value was 0.179.
For “GCTGGACCTTGGGTTCTAACCTGTTGCCT (site GCTGGACCTAG)”, the “recombinant barcode read abundance (log10)” value was 2.15.
In the case of “GCTTCACCTTGGGTTCTAACCTGTTGCCT (site GCTTCACCTAG)”, the “recombinant barcode read abundance (log10)” value is reported as 0.853.
In the case of “GCTTCACCTTGGGTTCTAACCTGTTGCCT (site GCTTTACCTAA)”, the “recombinant barcode read abundance (log10)” value is reported as 0.103.
For “GCTTGGACTTGGGTTCTAACCTGTTGCAT (site GCTTGGACTAT)”, the “recombinant barcode read abundance (log10)” value was 1.29.
For “GCTTGGACTTGGGTTCTAACCTGTTGCAT (site GTTTGGACTCT)”, the “recombinant barcode read abundance (log10)” value was 0.0332.
With “GCTTTACCTTGGGTTCTAACCTGTTGCTT (site GCTTCACCTAG)” the “recombinant barcode read abundance (log10)” value was 0.132.
In the case of “GCTTTACCTTGGGTTCTAACCTGTTGCTT (site GCTTTACCTAA)”, the “recombinant barcode read abundance (log10)” value is reported as 0.368.
With “GCTTTGACTTGGGTTCTAACCTGTTGCCT (site GCTTGGACTAG)” the “recombinant barcode read abundance (log10)” value was 0.0213.
With “GCTTTGACTTGGGTTCTAACCTGTTGCCT (site GCTTTGACTAG)” the “recombinant barcode read abundance (log10)” value was 0.788.
For “GGAAAGACTTGGGTTCTAACCTGTTGCAC (site GGAAAGACTGT)”, the “recombinant barcode read abundance (log10)” value was 2.02.
For “GGAAAGACTTGGGTTCTAACCTGTTGCAC (site TACCGCCCTAC)”, the “recombinant barcode read abundance (log10)” value was 0.128.
In the case of “GGAACCTCTTGGGTTCTAACCTGTTGCTT (site GGAACCTCTAA)”, the “recombinant barcode read abundance (log10)” value is reported as 0.697.
With “GGAACCTCTTGGGTTCTAACCTGTTGCTT (site GGAACGTCTAA)” the “recombinant barcode read abundance (log10)” value was 0.0112.
With “GGAAGACCTTGGGTTCTAACCTGTTGCTA (site GGAAGACCTTA)” the “recombinant barcode read abundance (log10)” value was 0.956.
In the case of “GGAAGACCTTGGGTTCTAACCTGTTGCTA (site GGAGGACCTAA)”, the “recombinant barcode read abundance (log10)” value is reported as 0.246.
For “GGAATCCCTTGGGTTCTAACCTGTTGCCT (site GGAATACCTAG)”, the “recombinant barcode read abundance (log10)” value was 0.0974.
For “GGAATCCCTTGGGTTCTAACCTGTTGCCT (site GGAATCCCTAG)”, the “recombinant barcode read abundance (log10)” value was 1.64.
For “GGAATCCCTTGGGTTCTAACCTGTTGCCT (site GGAATGCCTAG)”, the “recombinant barcode read abundance (log10)” value was 0.463.
With “GGAATCCCTTGGGTTCTAACCTGTTGCCT (site GGAATTCCTAG)” the “recombinant barcode read abundance (log10)” value was 0.0836.
With “GGACAGTCTTGGGTTCTAACCTGTTGCGT (site CCGGTCCCTCT)” the “recombinant barcode read abundance (log10)” value was 0.485.
In the case of “GGACAGTCTTGGGTTCTAACCTGTTGCGT (site GGACAGTCTAC)”, the “recombinant barcode read abundance (log10)” value is reported as 2.56.
With “GGACCTCCTTGGGTTCTAACCTGTTGCCT (site GGACCTCCTAA)” the “recombinant barcode read abundance (log10)” value was 0.336.
For “GGACCTCCTTGGGTTCTAACCTGTTGCCT (site GGACCTCCTAC)”, the “recombinant barcode read abundance (log10)” value was 0.251.
In the case of “GGACCTCCTTGGGTTCTAACCTGTTGCCT (site GGACCTCCTAG)”, the “recombinant barcode read abundance (log10)” value is reported as 1.32.
In the case of “GGACCTCCTTGGGTTCTAACCTGTTGCCT (site GGACCTCCTAT)”, the “recombinant barcode read abundance (log10)” value is reported as 0.524.
With “GGACGACCTTGGGTTCTAACCTGTTGCCT (site GGACGACCTAG)” the “recombinant barcode read abundance (log10)” value was 2.26.
In the case of “GGACGACCTTGGGTTCTAACCTGTTGCCT (site GGACGCCCTAG)”, the “recombinant barcode read abundance (log10)” value is reported as 0.102.
In the case of “GGACGACCTTGGGTTCTAACCTGTTGCCT (site GGACGGCCTAG)”, the “recombinant barcode read abundance (log10)” value is reported as 0.412.
In the case of “GGACGACCTTGGGTTCTAACCTGTTGCCT (site GGACGTCCTAG)”, the “recombinant barcode read abundance (log10)” value is reported as 0.163.
For “GGACGTGCTTGGGTTCTAACCTGTTGCCT (site CTCTCGTCTCC)”, the “recombinant barcode read abundance (log10)” value was 0.0482.
In the case of “GGACGTGCTTGGGTTCTAACCTGTTGCCT (site GGACGTGCTAG)”, the “recombinant barcode read abundance (log10)” value is reported as 1.92.
For “GGACTAACTTGGGTTCTAACCTGTTGCCT (site AGACTAACTAA)”, the “recombinant barcode read abundance (log10)” value was 0.126.
With “GGACTAACTTGGGTTCTAACCTGTTGCCT (site GGACTAACTAG)” the “recombinant barcode read abundance (log10)” value was 1.95.
For “GGAGAGACTTGGGTTCTAACCTGTTGCAT (site ACGTGTCCTCC)”, the “recombinant barcode read abundance (log10)” value was 0.149.
In the case of “GGAGAGACTTGGGTTCTAACCTGTTGCAT (site GGAGAGACTAT)”, the “recombinant barcode read abundance (log10)” value is reported as 2.79.
For “GGAGATTCTTGGGTTCTAACCTGTTGCCT (site GGAGATTCTAG)”, the “recombinant barcode read abundance (log10)” value was 2.22.
In the case of “GGAGATTCTTGGGTTCTAACCTGTTGCCT (site GGAGTTGCTAG)”, the “recombinant barcode read abundance (log10)” value is reported as 0.0142.
With “GGAGCTCCTTGGGTTCTAACCTGTTGCCA (site CGAGCTCCTGG)” the “recombinant barcode read abundance (log10)” value was 0.082.
With “GGAGCTCCTTGGGTTCTAACCTGTTGCCA (site GGAGCTCCTTG)” the “recombinant barcode read abundance (log10)” value was 0.371.
In the case of “GGAGGGACTTGGGTTCTAACCTGTTGCGT (site GGAGGGACTAC)”, the “recombinant barcode read abundance (log10)” value is reported as 2.97.
For “GGAGGGACTTGGGTTCTAACCTGTTGCGT (site GGTCGGACTAC)”, the “recombinant barcode read abundance (log10)” value was 0.0283.
In the case of “GGAGTCACTTGGGTTCTAACCTGTTGCGG (site GGAGTCACTCC)”, the “recombinant barcode read abundance (log10)” value is reported as 2.69.
In the case of “GGAGTCACTTGGGTTCTAACCTGTTGCGG (site TTGACACCTAG)”, the “recombinant barcode read abundance (log10)” value is reported as 0.189.
With “GGAGTGACTTGGGTTCTAACCTGTTGCTA (site GGAGTGACTAA)” the “recombinant barcode read abundance (log10)” value was 0.183.
In the case of “GGAGTGACTTGGGTTCTAACCTGTTGCTA (site GGAGTGACTTA)”, the “recombinant barcode read abundance (log10)” value is reported as 1.61.
For “GGATAGCCTTGGGTTCTAACCTGTTGCTT (site GGATAGCCTAA)”, the “recombinant barcode read abundance (log10)” value was 0.939.
For “GGATAGCCTTGGGTTCTAACCTGTTGCTT (site GGATGGACTAA)”, the “recombinant barcode read abundance (log10)” value was 0.17.
For “GGATATACTTGGGTTCTAACCTGTTGCCT (site GGATATACTAG)”, the “recombinant barcode read abundance (log10)” value was 1.47.
With “GGATATACTTGGGTTCTAACCTGTTGCCT (site GGATTTACTAG)” the “recombinant barcode read abundance (log10)” value was 0.186.
With “GGATATCCTTGGGTTCTAACCTGTTGCTT (site CAGGTGACTCC)” the “recombinant barcode read abundance (log10)” value was 0.
In the case of “GGATATCCTTGGGTTCTAACCTGTTGCTT (site GGATATCCTAA)”, the “recombinant barcode read abundance (log10)” value is reported as 0.284.
In the case of “GGATCCTCTTGGGTTCTAACCTGTTGCCG (site GGATCCTCTCG)”, the “recombinant barcode read abundance (log10)” value is reported as 1.45.
With “GGATCCTCTTGGGTTCTAACCTGTTGCCG (site GTTTCCTCTCG)” the “recombinant barcode read abundance (log10)” value was 0.0317.
With “GGATGCACTTGGGTTCTAACCTGTTGCCA (site GGATACACTTG)” the “recombinant barcode read abundance (log10)” value was 0.237.
For “GGATGCACTTGGGTTCTAACCTGTTGCCA (site GGATCCACTTG)”, the “recombinant barcode read abundance (log10)” value was 0.00874.
In the case of “GGATGCACTTGGGTTCTAACCTGTTGCCA (site GGATGCACTTG)”, the “recombinant barcode read abundance (log10)” value is reported as 0.953.
With “GGATGCACTTGGGTTCTAACCTGTTGCCA (site GGATTCACTTG)” the “recombinant barcode read abundance (log10)” value was 0.319.
With “GGATGTCCTTGGGTTCTAACCTGTTGCGT (site CTATGTCCTAC)” the “recombinant barcode read abundance (log10)” value was 0.29.
With “GGATGTCCTTGGGTTCTAACCTGTTGCGT (site GGATGTCCTAC)” the “recombinant barcode read abundance (log10)” value was 1.95.
In the case of “GGATTCACTTGGGTTCTAACCTGTTGCCA (site GGATACACTTG)”, the “recombinant barcode read abundance (log10)” value is reported as 0.0986.
With “GGATTCACTTGGGTTCTAACCTGTTGCCA (site GGATCCACTTG)” the “recombinant barcode read abundance (log10)” value was 0.0631.
For “GGATTCACTTGGGTTCTAACCTGTTGCCA (site GGATGCACTTG)”, the “recombinant barcode read abundance (log10)” value was 0.925.
In the case of “GGATTCACTTGGGTTCTAACCTGTTGCCA (site GGATTCACTTG)”, the “recombinant barcode read abundance (log10)” value is reported as 0.992.
For “GGCACGACTTGGGTTCTAACCTGTTGCCT (site GGCACAACTAG)”, the “recombinant barcode read abundance (log10)” value was 0.274.
For “GGCACGACTTGGGTTCTAACCTGTTGCCT (site GGCACCACTAG)”, the “recombinant barcode read abundance (log10)” value was 0.221.
For “GGCACGACTTGGGTTCTAACCTGTTGCCT (site GGCACGACTAG)”, the “recombinant barcode read abundance (log10)” value was 0.323.
For “GGCACGACTTGGGTTCTAACCTGTTGCCT (site GGCACTACTAG)”, the “recombinant barcode read abundance (log10)” value was 0.0541.
With “GGCACTCCTTGGGTTCTAACCTGTTGCCT (site GGCACTCCTAG)” the “recombinant barcode read abundance (log10)” value was 0.351.
With “GGCACTCCTTGGGTTCTAACCTGTTGCCT (site GGCATTCCTAG)” the “recombinant barcode read abundance (log10)” value was 0.171.
In the case of “GGCACTGCTTGGGTTCTAACCTGTTGCCT (site GGCACAGCTAG)”, the “recombinant barcode read abundance (log10)” value is reported as 0.332.
For “GGCACTGCTTGGGTTCTAACCTGTTGCCT (site GGCACCGCTAG)”, the “recombinant barcode read abundance (log10)” value was 0.123.
For “GGCACTGCTTGGGTTCTAACCTGTTGCCT (site GGCACGGCTAG)”, the “recombinant barcode read abundance (log10)” value was 0.189.
In the case of “GGCACTGCTTGGGTTCTAACCTGTTGCCT (site GGCACTGCTAG)”, the “recombinant barcode read abundance (log10)” value is reported as 0.34.
For “GGCAGATCTTGGGTTCTAACCTGTTGCTT (site GGCAGATCTAA)”, the “recombinant barcode read abundance (log10)” value was 0.193.
In the case of “GGCAGATCTTGGGTTCTAACCTGTTGCTT (site GGCAGCTCTAA)”, the “recombinant barcode read abundance (log10)” value is reported as 0.043.
For “GGCAGATCTTGGGTTCTAACCTGTTGCTT (site GGCAGGTCTAA)”, the “recombinant barcode read abundance (log10)” value was 0.0248.
For “GGCAGATCTTGGGTTCTAACCTGTTGCTT (site GGCAGTTCTAA)”, the “recombinant barcode read abundance (log10)” value was 0.9.
In the case of “GGCAGTCCTTGGGTTCTAACCTGTTGCCG (site GGCAGACCTAG)”, the “recombinant barcode read abundance (log10)” value is reported as 0.169.
With “GGCAGTCCTTGGGTTCTAACCTGTTGCCG (site GGCAGTCCTCG)” the “recombinant barcode read abundance (log10)” value was 0.364.
With “GGCAGTCCTTGGGTTCTAACCTGTTGCTT (site GGCAGTCCTAA)” the “recombinant barcode read abundance (log10)” value was 0.336.
With “GGCAGTCCTTGGGTTCTAACCTGTTGCTT (site GGCAGTCCTAG)” the “recombinant barcode read abundance (log10)” value was 0.252.
